Source: paper PMC6199744, “Development of Chemical Proteomics for the Folateome and Analysis of the Kinetoplastid Folateome” (ACS Infectious Diseases, 2018)
Like-named read-outs stand apart in the source and are kept apart here.

How the values were obtained:
Type in all cases: binding
[1] = target: T1, HeLa cell extract proteins (Homo sapiens, UniProt O00764)
T1 construct: endogenous in cells; host or cells: HeLa cell extract
T1 sequence (O00764 1-312): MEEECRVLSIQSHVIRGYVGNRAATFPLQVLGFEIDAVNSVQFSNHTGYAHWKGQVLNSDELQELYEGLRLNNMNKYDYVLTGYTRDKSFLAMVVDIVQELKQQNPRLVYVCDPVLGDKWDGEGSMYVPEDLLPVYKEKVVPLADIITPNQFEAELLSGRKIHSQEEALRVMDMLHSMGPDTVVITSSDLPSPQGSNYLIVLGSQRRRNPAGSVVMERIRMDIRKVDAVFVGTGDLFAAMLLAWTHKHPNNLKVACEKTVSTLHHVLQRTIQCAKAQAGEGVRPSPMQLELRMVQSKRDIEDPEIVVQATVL

[2] = target: T2, HeLa cell extract proteins (Homo sapiens, UniProt P49411)
T2 construct: endogenous in cells; host or cells: HeLa cell extract

[3] = target: T3, HeLa cell extract proteins (Homo sapiens, UniProt P09496)
T3 construct: endogenous in cells; host or cells: HeLa cell extract
T3 sequence (P09496 1-248): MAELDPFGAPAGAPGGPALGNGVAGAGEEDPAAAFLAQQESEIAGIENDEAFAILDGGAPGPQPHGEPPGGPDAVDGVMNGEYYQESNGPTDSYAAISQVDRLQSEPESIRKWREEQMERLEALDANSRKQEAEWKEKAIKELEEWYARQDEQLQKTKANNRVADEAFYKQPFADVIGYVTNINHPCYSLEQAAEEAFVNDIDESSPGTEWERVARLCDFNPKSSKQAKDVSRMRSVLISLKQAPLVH

[4] = target: T4, HeLa cell extract proteins (Homo sapiens, UniProt Q9H857)
T4 construct: endogenous in cells; host or cells: HeLa cell extract
T4 sequence (Q9H857 1-520): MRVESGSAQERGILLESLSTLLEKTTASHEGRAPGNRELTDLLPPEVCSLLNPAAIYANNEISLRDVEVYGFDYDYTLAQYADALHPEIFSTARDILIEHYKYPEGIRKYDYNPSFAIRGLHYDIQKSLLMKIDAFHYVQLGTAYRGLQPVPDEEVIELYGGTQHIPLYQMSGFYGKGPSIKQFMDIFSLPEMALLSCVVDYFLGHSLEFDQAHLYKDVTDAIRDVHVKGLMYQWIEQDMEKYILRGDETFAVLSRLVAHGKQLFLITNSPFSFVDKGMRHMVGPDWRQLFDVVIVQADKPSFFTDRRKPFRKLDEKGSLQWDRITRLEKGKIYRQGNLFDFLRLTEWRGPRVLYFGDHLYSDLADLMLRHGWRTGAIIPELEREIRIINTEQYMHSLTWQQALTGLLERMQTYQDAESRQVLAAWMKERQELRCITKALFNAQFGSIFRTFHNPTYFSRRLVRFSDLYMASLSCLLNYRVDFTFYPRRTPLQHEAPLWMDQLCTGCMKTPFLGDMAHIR

[5] = target: T5, HeLa cell extract proteins (Homo sapiens, UniProt Q99439)
T5 construct: endogenous in cells; host or cells: HeLa cell extract
T5 sequence (Q99439 1-309): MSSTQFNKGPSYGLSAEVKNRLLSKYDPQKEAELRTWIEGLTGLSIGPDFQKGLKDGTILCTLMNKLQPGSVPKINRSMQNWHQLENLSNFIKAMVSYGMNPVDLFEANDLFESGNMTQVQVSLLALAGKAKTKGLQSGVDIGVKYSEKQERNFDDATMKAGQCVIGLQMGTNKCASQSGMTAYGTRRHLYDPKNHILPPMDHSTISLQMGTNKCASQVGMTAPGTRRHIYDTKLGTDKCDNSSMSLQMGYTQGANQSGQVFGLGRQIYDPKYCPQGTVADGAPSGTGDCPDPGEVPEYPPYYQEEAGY

[6] = target: T6, HeLa cell extract proteins (Homo sapiens, UniProt P11177)
T6 construct: endogenous in cells; host or cells: HeLa cell extract
T6 sequence (P11177 31-359): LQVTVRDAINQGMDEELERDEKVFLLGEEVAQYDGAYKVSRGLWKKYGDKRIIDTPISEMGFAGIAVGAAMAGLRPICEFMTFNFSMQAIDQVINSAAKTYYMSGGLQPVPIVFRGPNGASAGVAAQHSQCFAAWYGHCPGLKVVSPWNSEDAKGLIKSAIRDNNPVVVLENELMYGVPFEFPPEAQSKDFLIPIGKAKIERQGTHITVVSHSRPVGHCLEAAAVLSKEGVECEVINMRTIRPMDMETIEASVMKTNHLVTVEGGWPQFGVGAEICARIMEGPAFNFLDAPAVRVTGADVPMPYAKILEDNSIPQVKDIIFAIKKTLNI

[7] = target: T7, HeLa cell extract proteins (Homo sapiens, UniProt P46940)
T7 construct: endogenous in cells; host or cells: HeLa cell extract
T7 sequence (P46940 whole entry): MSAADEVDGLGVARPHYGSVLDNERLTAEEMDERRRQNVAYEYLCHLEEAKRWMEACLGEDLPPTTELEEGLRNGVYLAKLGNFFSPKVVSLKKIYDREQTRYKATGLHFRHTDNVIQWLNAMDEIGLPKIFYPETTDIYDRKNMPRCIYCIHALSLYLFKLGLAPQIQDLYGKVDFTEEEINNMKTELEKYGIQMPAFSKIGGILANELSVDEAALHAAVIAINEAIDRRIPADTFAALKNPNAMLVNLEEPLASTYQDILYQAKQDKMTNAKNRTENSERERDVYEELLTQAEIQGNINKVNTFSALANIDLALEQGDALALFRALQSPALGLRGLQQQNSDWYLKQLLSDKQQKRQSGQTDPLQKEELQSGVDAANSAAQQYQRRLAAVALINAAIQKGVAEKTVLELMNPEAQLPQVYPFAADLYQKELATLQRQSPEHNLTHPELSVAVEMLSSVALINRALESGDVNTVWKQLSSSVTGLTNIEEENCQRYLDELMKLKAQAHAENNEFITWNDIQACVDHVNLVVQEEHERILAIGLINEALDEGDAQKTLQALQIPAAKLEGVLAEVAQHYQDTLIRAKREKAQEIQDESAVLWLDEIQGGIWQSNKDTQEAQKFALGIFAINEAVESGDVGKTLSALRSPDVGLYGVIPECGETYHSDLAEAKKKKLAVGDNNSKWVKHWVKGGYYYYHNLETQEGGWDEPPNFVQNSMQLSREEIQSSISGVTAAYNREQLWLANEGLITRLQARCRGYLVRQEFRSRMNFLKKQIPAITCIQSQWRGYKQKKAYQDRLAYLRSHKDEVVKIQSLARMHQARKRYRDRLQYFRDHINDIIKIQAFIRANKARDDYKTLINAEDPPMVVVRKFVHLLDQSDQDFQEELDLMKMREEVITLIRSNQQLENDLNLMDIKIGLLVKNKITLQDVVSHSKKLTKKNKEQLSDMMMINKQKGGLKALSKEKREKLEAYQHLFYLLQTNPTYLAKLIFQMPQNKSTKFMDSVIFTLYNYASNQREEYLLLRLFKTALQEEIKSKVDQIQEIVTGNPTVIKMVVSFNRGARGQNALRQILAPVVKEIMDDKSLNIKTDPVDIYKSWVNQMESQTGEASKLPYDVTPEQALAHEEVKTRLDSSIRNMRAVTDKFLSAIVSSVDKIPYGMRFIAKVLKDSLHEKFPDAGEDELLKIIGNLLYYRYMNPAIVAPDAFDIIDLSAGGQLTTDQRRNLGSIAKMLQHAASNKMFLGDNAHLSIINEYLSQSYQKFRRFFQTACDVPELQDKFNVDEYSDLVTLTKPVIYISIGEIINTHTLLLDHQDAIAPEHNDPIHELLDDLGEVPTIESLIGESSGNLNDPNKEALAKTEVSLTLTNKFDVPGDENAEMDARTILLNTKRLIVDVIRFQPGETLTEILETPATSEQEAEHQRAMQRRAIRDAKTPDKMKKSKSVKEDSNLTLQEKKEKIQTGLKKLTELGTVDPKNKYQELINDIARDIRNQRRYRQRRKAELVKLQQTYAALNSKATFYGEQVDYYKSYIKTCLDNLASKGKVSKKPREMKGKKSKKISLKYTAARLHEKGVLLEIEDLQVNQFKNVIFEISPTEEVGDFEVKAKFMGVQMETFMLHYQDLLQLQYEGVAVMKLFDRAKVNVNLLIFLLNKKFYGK

[8] = target: T8, HeLa cell extract proteins (Homo sapiens, UniProt Q3ZCQ8)
T8 construct: endogenous in cells; host or cells: HeLa cell extract
T8 sequence (Q3ZCQ8 45-353): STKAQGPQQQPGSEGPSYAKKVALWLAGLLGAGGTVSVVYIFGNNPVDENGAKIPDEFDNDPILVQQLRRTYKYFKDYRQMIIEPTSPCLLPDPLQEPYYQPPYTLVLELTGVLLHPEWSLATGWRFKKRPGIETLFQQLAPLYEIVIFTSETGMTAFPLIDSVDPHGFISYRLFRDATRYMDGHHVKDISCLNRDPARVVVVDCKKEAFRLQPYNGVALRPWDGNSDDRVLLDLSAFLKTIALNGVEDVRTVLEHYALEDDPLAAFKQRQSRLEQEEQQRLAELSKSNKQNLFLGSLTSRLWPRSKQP

[9] = HeLa, protein PDHB (ISOFORM 1 OF PYRUVATE DEHYDROGENASE E1 COMPONENT SUBUNIT BETA, MITOCHONDRIAL PRECURSOR)

`Nc1nc2c(c(=O)[nH]1)N(C=O)C(CNc1ccc(C(=O)N[C@@H](CCC(=O)O)C(=O)O)cc1)CN2` (some centres unmarked) [LEU, leucovorin] was tested, and the “fold changes relative to vehicle control” value ([1]; protein PDXK, HeLa) was 1.09, the “fold changes relative to vehicle control” value ([2]; protein TUFM, HeLa) was 0.93 and the “fold changes relative to vehicle control” value ([3]; HeLa, captured protein CLTA) was 1.19. For the same molecule, the “fold changes relative to vehicle control” value ([4]; HeLa, captured protein NT5DC2) was 0.94, the “fold changes relative to vehicle control” value ([5]; HeLa, captured protein CNN2) was 0.97 and the “fold changes relative to vehicle control” value ([6]; HeLa, protein PDHB (ISOFORM 1 OF PYRUVATE DEHYDROGENASE E1 COMPONENT SUBUNIT BETA, MIT[…])) was 1.01. The “fold changes relative to vehicle control” value ([7]; HeLa, protein IQGAP1) was 1.02 and the “fold changes relative to vehicle control” value ([8]; HeLa, protein TIMM50) was 0.9.

In the case of `NCCCNc1ccc(C(=O)NC(CCC(=O)O)C(=O)O)cc1` (centres unmarked) [compound 7], the “fold changes relative to vehicle control” value ([1]; protein PDXK, HeLa) was 1.03, the “fold changes relative to vehicle control” value ([2]; protein TUFM, HeLa) was 0.88 and the “fold changes relative to vehicle control” value ([3]; HeLa, captured protein CLTA) was 1.4. The “fold changes relative to vehicle control” value ([4]; HeLa, captured protein NT5DC2) was 0.97, the “fold changes relative to vehicle control” value ([5]; HeLa, captured protein CNN2) was 1.33 and the “fold changes relative to vehicle control” value [6, 9] was 0.92. The “fold changes relative to vehicle control” value ([7]; HeLa, protein IQGAP1) was 1.18 and the “fold changes relative to vehicle control” value ([8]; HeLa, protein TIMM50) was 0.97.

For `CCCCCCOc1cccc(Cc2cnc(N)nc2N)c1` [compound 2], the “fold changes relative to vehicle control” value ([1]; HeLa, protein PDXK) was 0.97, the “fold changes relative to vehicle control” value ([2]; protein TUFM, HeLa) was 1.68 and the “fold changes relative to vehicle control” value ([3]; HeLa, protein CLTA) was 0.99. For the same molecule, the “fold changes relative to vehicle control” value ([4]; protein NT5DC2, HeLa) was 0.91, the “fold changes relative to vehicle control” value ([5]; HeLa, protein CNN2) was 0.95 and the “fold changes relative to vehicle control” value ([6]; protein PDHB, HeLa) was 0.38. For the same molecule, the “fold changes relative to vehicle control” value ([7]; protein IQGAP1, HeLa) was 1.69 and the “fold changes relative to vehicle control” value ([8]; captured protein TIMM50, HeLa) was 1.04.

For `CCCCCCOc1ccc(Cc2cnc(N)nc2N)cc1` [compound 1], the “fold changes relative to vehicle control” value ([1]; HeLa, protein PDXK) was 1.03, the “fold changes relative to vehicle control” value ([2]; protein TUFM, HeLa) was 1.18 and the “fold changes relative to vehicle control” value ([3]; HeLa, protein CLTA) was 0.68. For the same molecule, the “fold changes relative to vehicle control” value ([4]; protein NT5DC2, HeLa) was 1.05, the “fold changes relative to vehicle control” value ([5]; HeLa, protein CNN2) was 0.81 and the “fold changes relative to vehicle control” value ([6]; protein PDHB, HeLa) was 0.97. For the same molecule, the “fold changes relative to vehicle control” value ([7]; protein IQGAP1, HeLa) was 0.99 and the “fold changes relative to vehicle control” value ([8]; captured protein TIMM50, HeLa) was 1.

For `Nc1nc2cccc(-c3ccccc3)c2n1Cc1ccc(Cl)c(Cl)c1` [compound 3], the “fold changes relative to vehicle control” value ([1]; HeLa, protein PDXK) was 0.9, the “fold changes relative to vehicle control” value ([2]; protein TUFM, HeLa) was 0.92 and the “fold changes relative to vehicle control” value ([3]; HeLa, protein CLTA) was 1.09. For the same molecule, the “fold changes relative to vehicle control” value ([4]; protein NT5DC2, HeLa) was 1, the “fold changes relative to vehicle control” value ([5]; HeLa, protein CNN2) was 1.07 and the “fold changes relative to vehicle control” value ([6]; protein PDHB, HeLa) was 0.99. For the same molecule, the “fold changes relative to vehicle control” value ([7]; protein IQGAP1, HeLa) was 0.93 and the “fold changes relative to vehicle control” value ([8]; captured protein TIMM50, HeLa) was 0.99.

In the case of `NCCOCCOCC(=O)Nc1nc2ncc(CNc3ccc(C(=O)NC(CCC(=O)O)C(=O)O)cc3)nc2c(=O)[nH]1` (centres unmarked) [compound 6], the “fold changes relative to vehicle control” value ([1]; protein PDXK, HeLa) was 0.87, the “fold changes relative to vehicle control” value ([2]; protein TUFM, HeLa) was 1.07 and the “fold changes relative to vehicle control” value ([3]; HeLa, captured protein CLTA) was 1.48. The “fold changes relative to vehicle control” value ([4]; HeLa, captured protein NT5DC2) was 0.96, the “fold changes relative to vehicle control” value ([5]; HeLa, captured protein CNN2) was 0.93 and the “fold changes relative to vehicle control” value [6, 9] was 0.87. For the same molecule, the “fold changes relative to vehicle control” value ([7]; HeLa, protein IQGAP1) was 1.25 and the “fold changes relative to vehicle control” value ([8]; HeLa, protein TIMM50) was 0.96.

In the case of `Nc1nc2[nH]cc(CCc3ccc(C(=O)N[C@@H](CCC(=O)O)C(=O)O)cc3)c2c(=O)[nH]1` [PTX, pemetrexed], the “fold changes relative to vehicle control” value [1] was 0.83, the “fold changes relative to vehicle control” value [2] was 0.97 and the “fold changes relative to vehicle control” value [3] was 1.55. The “fold changes relative to vehicle control” value [4] was 0.91, the “fold changes relative to vehicle control” value [5] was 0.96 and the “fold changes relative to vehicle control” value [6] was 0.92. The “fold changes relative to vehicle control” value [7] was 1.08 and the “fold changes relative to vehicle control” value [8] was 0.87.
